Data set [1] is described as follows: Storage stability of cyclopropene derivatives. The format is physicochemical. To be noted: stored at −20° C.
Data set [2] can be described thus: Reaction rate determination of cyclopropenes with tetrazine 3. The format is physicochemical. The method, then: A tetrazine 3 stock solution was prepared in DMSO and used to prepare tetrazine solutions at 0.6 mM final concentration in 12% v/v DMSO in ddH2O. Reactions were initiated with excess cyclopropene at final concentrations of 6.0, 8.0, and 10.0 mM. The disappearance of the tetrazine absorption peak at 520 nm was tracked over the reaction timeframe by measuring the absorption spectra using a NanoDrop 2000c spectrophotometer (Thermo Scientific). Samples were placed in a quartz cuvette with 10-mm pathlength and stirred at the maximum speed setting of the instrument. The temperature was uncontrolled by the instrument for room temperature (20° C.) measurements, and set and equilibrated at 37° C. for the higher temperature experiments.
Absorption spectra were measured manually over time. Absorption peak signal was taken as the average of measurements at 519-521 nm. Baseline signal was determined as the sloping line connecting the measured background levels preceding and following the tetrazine peak (410-430 nm and 590-610 nm, respectively). Final peak intensity value was taken as the signal above the baseline. Reaction rates were obtained by fitting the exponential decays of tetrazine peak absorption intensity as a pseudo first order reaction. Nonlinear data fits were performed with GraphPad Prism. Tetrazine reactions with cyclopropene carbamate 5 were carried out at 20 and 37° C. (data points and corresponding fitted curves at 20° C. in FIG. 51, 37° C. in FIG. 2c). Tetrazine reactions with cyclopropene carboxamide 2 were done at 37° C. ([…]. A representative comparison fit is shown for cyclopropenes 5 and 2 at 8.0 mM concentration reacting at 37° C. with 0.6 mM tetrazine.

The nature of data set [3]: Stability of cyclopropene 5 by 1H NMR. The format is physicochemical. Particulars: 37° C., over 24 hours. The method, then: Cyclopropene 5 was kept at 37° C. in D2O: DMSO-d6=10:1 and 1H NMR was taken over a period of 24 h at the following time points: 0.0, 0.5, 1.0, 1.5, 3.0, 6.0 and 24.0 h. By comparing the peak abundance of the cyclopropene alkene proton (6.21 ppm) at different time points, we determined the stability of cyclopropene 5 (Figure S2).

Data set [4] in a line: Fluorescence turn-on spectroscopy of tetrazine-Alexa Fluor 488 with Ac4ManNCyc. The format is physicochemical. The method, then:
Mannosamine-cyclopropene (Ac4ManNCyc) and tetrazine-Alexa-Fluor 488 stocks were prepared at 1 and 0.1 mM, respectively, in phosphate-buffered saline (PBS) pH 7.4. Fluorescence turn-on was measured using a Perkin Elmer LD-45 spectrometer, with the excitation wavelength set to 480/5 nm, and emission scanned over 490-620 nm (5-nm slit width) at a rate of 50 nm/min. Reaction conditions were 50 μM tetrazine-Alexa-Fluor 488 and 100 μM Ac4ManNCyc in PBS pH 7.4 buffer at room temperature.

A further data set deals with LS174T cells. Nature of the data set: Live-cell microscopy of metabolically incorporated cyclopropene sugar. Format: cell-based, human. Particulars: 100 μM for 48 hours, then 10 μM tetrazine-Alexa Fluor 488 for 1 hour. The method, then:
(§1) SKBR3 and LS 174T cells were grown in cDMEM media supplemented with 10% fetal bovine serum, 1% L-glutamine, 1% penicillin/streptomycin. Cells were incubated in 5.0% carbon dioxide, 95% humidity at 37° C. Generally, cells were grown in T-75 tissue culture flasks, seeded at densities between 500,000 and 750,000 cells per flask (cells were quantified with the Life Technologies Countess automated cell counter). The cells were trypsinized with TrypLE Express and resuspended in cDMEM. Cells were allowed to incubate for two days before supplementing with Ac4ManNCyc (N-cyclopropeneacetylmannosamine) or Ac4GlcNAz (N-azidoacetylglucosamine). The cells were then analyzed via confocal microscopy and flow cytometry as described below.
(§2) The SKBR3 and LS174T cells were incubated for two days in the presence of 100 μM of Ac4ManNCyc and/or 50 μM Ac4GlcNAz on a Lab-Tek chamber slide maintained in cDMEM medium. Treatment of cells with tunicamycin was done by preparing a 0.2 mg/mL stock in DMSO, which was diluted to a final working concentration of 1.2 μM tunicamycin in cDMEM (0.5% DMSO). Cells were washed 3× with phosphate-buffered saline (PBS) and incubated for 1 hour at 37° C. in 10 μM tetrazine-BODIPY TMR-X, 10 μM tetrazine-Alexa flour 488 and/or 15 μM dibenzocyclooctyne (DIBO)-Alexa Fluor 647 in cDMEM. The media was aspirated, and cells were washed twice with PBS before imaging. All photos were collected with an Olympus FV1000 confocal microscope using ImageJ 1.45j software package.
(§3) In order to determine if Ac4ManNCyc was incorporated effectively by cells, we incubated adherent human breast cancer (SKBR3) and colon cancer (LS174T) cell lines with 100 μM Ac4ManNCyc for 48 hours in cell media and serum. After incubation, cells were thoroughly washed and then reacted for 1 hour with 10 μM of fluorogenic Alexa Fluor 488 tetrazine. After a second wash, cells were imaged by confocal microscopy (Olympus FV1000). […] In order to ensure that the staining was due to glycan uptake of the probe, we also performed controls by exposing cells to 100 μM Ac4ManNCyc and inhibiting uptake by using glycosylation inhibitors (ie. tunicamycin and αBnGalNAc) or 20 mM of ManNAc as a competitive substrate.^[14] […] These experiments provide evidence that the staining patterns are reporting on glycosylation and uptake of the unnatural cyclopropene mannosamine. We also performed additional studies using flow cytometry to quantitate the relative uptake of sugars that corroborated the imaging data.

The subject of data set [5] is SKBR3 cells. The description is as above. Format: cell-based, human. To be noted: SKBR3; 100 μM for 48 hours, then 10 μM tetrazine-Alexa Fluor 488 for 1 hour. The method, then: as §1, §2, §3
Data set [6] has as its system SKBR3 cells. Nature of the data set: Analysis of cell surface cyclopropenes by flow cytometry. Format: cell-based, human. To be noted: followed by tetrazine imaging probe. The method, then:
After the incubating the adherent SKBR3 cells in 100 μM of Ac4ManNCyc (1.2 μM tunicamycin and/or 1 mM aBnGalNAc was used in experiments requiring glycosylation inhibitors) they were washed twice in PBS and then incubated in 10 μM of tetrazine-Alexa flour 488 for 1 hour at 37° C. Control cells were not exposed to Ac4ManNCyc and incubated in 10 μM of tetrazine-Alexa flour 488 for 1 hour at 37° C. Cells were then resuspended in 1-2 ml of cDMEM (5.0×10^5 to 1.0×10^6 per ml) using a rubber policeman. The cells were passed through a 25 gauge syringe to ameliorate excessive clumping, and subjected to analysis by flow cytometry using a 200 mW 488 nm blue solid state laser on the Partec Space Flow Cytometer (Partec).
(Flow cytometry measures light scatter and fluorescence of single cells or particles in a stream.)

Data set [7] concerns LS174T human colon cancer cells. Nature of the data set: Simultaneous imaging of two metabolically incorporated unnatural sugars and cross reactivity. Format: cell-based. The method, then:
as §2
Finally, we tested whether or not we could simultaneously image two different metabolically incorporated unnatural sugar derivatives, Ac4ManNCyc and tetraacetylated N-azidoacetylgalactosamine (Ac4GalNAz). […] Recent experimental work has shown that alkenes and azides can be mutually orthogonal to each other, even when using highly strained trans-cyclooctenes. Additionally, the Houk group has calculated that methyl-cyclopropene handles, such as those we have previously developed, should be mutually orthogonal to azide cyclooctyne reactions. We incubated LS174T human colon cancer cells with 100 μM Ac4ManNCyc and Ac4GalNAz for 2 days. After incubation, we sequentially stained the cells with 10 μM tetrazine-Alexa Fluor 488 and 15 μM dibenzocyclooctyne (DIBO) 647. […] Similar results were obtained with the SKBR3 cell line. […] The ability to simultaneously label two different metabolically incorporated molecules using live-cell compatible inverse-Diels-Alder and Huisgen reactions expands the capabilities of bioorthogonal metabolic imaging.

Data set [8] deals with 27mer DNA template. Nature of the data set: Melting temperatures of DNA template with probes and ligation products. To be noted: hybridization target against 27mer template; 250 mM NaCl in buffer; 1 μM each oligonucleotide. Format: physicochemical. The method, then: Melting temperature of probes and ligation products in hybridization buffer (50 mM MOPS pH 7.5, 250 mM NaCl) were measured using a Beckman-Coulter DU 640 spectrophotometer equipped with a high performance temperature controller and micro auto six-cell holder. Samples at 1 μM concentration of each oligonucleotide were heated to 90° C. and slowly cooled to RT over 1-1.5 h before the measurements. Melting temperature values were obtained by cooling samples from 90° C. to 20° C. at the rate of 1° C./min and measuring at 1° C. increments with each read averaged over 1 s.

Data set [9] relates to 27mer DNA template. Nature of the data set: Template-driven ligation of tetrazine and cyclopropene oligonucleotide probes (fluorescence). The format is biochemical. The method, then:
(§4) Tetrazine and cyclopropene-modified oligonucleotide probes were ligated in the presence of a DNA or RNA template at a 1:1:1 ratio. Reactions were done in varying solution and temperature conditions, as indicated. Main hybridization buffer was 50 mM MOPS at pH 7.5, 250 mM NaCl. Ligation reactions with a mismatched DNA template were performed in 5 mM MgCl2 in standard 1× Tris-borate buffer (purchased as 10× UltraPure TBE from Invitrogen: 1.0 M Tris pH 8.4, 0.9 M Boric acid, 10 mM EDTA).
(§5) Ligation reactions were done in standard 96 fluorescence well plates using SpectraMax GeminiXS (Molecular Devices). Temperature was set by the instrument. Where indicated by standard deviations, experiments were performed multiple times. In order to avoid any secondary structure artifacts, DNA or RNA template with added tetrazine probe was first heated to 90° C. and crash-cooled on ice for 2 min right before the experiment. Each well was filled with a total of 100 μL reaction solution, and reactions were timed from the addition of the cyclopropene probe as the last step before starting the measurements. Wells were scanned every 20-60 s depending on the speed of the reactions by using 485 nm excitation and 538 nm emission with the cutoff set at 495 nm. Control reactions without template were done in parallel each time. Buffer-only well intensities were subtracted from the measured raw data before analysis. Data was analyzed using GraphPad Prism 6.0 by applying a nonlinear fit of a one-phase association to each curve where fluorescein signal during reaction was measured.

In a further data set the test system is 27mer RNA template. The data set is described as follows: Ligation of oligonucleotide probes with an RNA template. The format is biochemical. To be noted: ligating 13merF15′tet and 13mer3′cycp1. The method, then: as §4
as §5, with “Wells were scanned every 20-60 s depending on the speed of the reactions by using 485 nm excitation and 538 nm emission with the cutoff set at 495 nm. Control reactions without template were done in parallel each time.” left out

Data set [10] concerns singly-mismatched 27mer template. Nature of the data set: Single nucleotide mismatch discrimination in probe ligation. To be noted: 5 mM MgCl2 in Tris-borate buffer at 37° C.; reaction with 13merF15′tet. The format is biochemical. The method, then:
as §4
A single nucleotide mismatch effect was determined on reaction completion in discriminating conditions from FIG. 2C and is depicted in Figure S8. TBE 1× buffer (pH 8.4, Invitrogen) with 5 mM MgCl2 solution at 37° C. was used for incubation of 13mer5′tet with 13mer3′cycp1 in the presence of a fully matched template, or a sample containing a fully matched template and a single mismatched template, and a sample with only a singly-mismatched template. All DNA concentrations were kept at 1 μM. Fluorescence measurements were taken using a Perkin Elmer LD-45 spectrophotometer, as described above, with the samples in the quartz cuvettes warmed with attached circulating water bath. Initial timepoints were taken of prewarmed samples prior to template addition, and subtracted from the final intensity values (Figure S8).

Here are results for three substances from patent US9533957B2, “Tetrazines and method of synthezising the same” (The Regents of the University of California, priority 2012, dated 2017).

{cycp1} = methylcyclopropene carbamate coupled through the 3' amine; {3AmMO} = amino modifier (IDT nomenclature)

In the case of “2-methyl-cyclopropene carbamate [cyclopropene 5]”, in data set [1], the “storage stability at −20° C.” value is given as “without degradation”. The substance also registered a rate constant in [2] (20° C., 12% DMSO by volume) of 7 ± 1 M⁻¹ s⁻¹. Moreover, in [2] (37° C.), the “improvement of rate constant compared to cyclopropene carboxamide 2” value was “approximately two orders of magnitude”. Moreover, the “second order rate constant” value in data set [2] (37° C., water/DMSO (12% DMSO by volume)) was determined as 13 ± 2 M⁻¹ s⁻¹. Besides, the “degradation in aqueous solutions” value in data set [3] is “no significant degradation”.

In the case of “1,3,4,6-Tetra-O-acety-N-cyclopropene tag-D-mannosamine [Ac4ManNCyc]”, in [4], the “fluorogenic response of quenched tetrazine probe” value was “elicits fluorogenic responses”. Besides, the “cell surface staining by confocal microscopy” value in the data set on LS174T cells and in the data set on SKBR3 cells [5] was “bright surface staining” in each case. The “fluorescence intensity by flow cytometry compared to controls” value in the data set on SKBR3 cells [6] is “increased fluorescence intensity”. Also, the “cell surface staining after co-incubation of both sugars” value in data set [7] (100 μM, 2 days, stained with 10 μM tetrazine-Alexa Fluor 488 and 15 μM DIBO 647) is “cell surface staining in both the fluorescent channels”. Moreover, the “cross reactivity: surface staining with DIBO 647” value in data set [7] (cells incubated with only this sugar) is listed as “minimal surface staining”.

On to “13mer3′cycp1: 5′-ATT CAA CAC TAC C/3AmMO/-cyclopropene-3′ (SEQ ID NO:5), methyl-cyclopropene carbamate cycp1 (DNA ATTCAACACTACC; DNA, 3' {3AmMO}-{cycp1}, backbone not given here)”, for which the “Melting T” value in the data set on 27mer DNA template [8] was determined as 50.4 °C. Also, the “reaction yield by LC/MS” value in the data set on 27mer DNA template [9] (disappearance of 13merF15′tet and appearance of product) is given as “approximately 92%”. Moreover, the “effective molarity of the intramolecular reaction” value with 27mer DNA template [9] (estimated assuming the reaction is limited by ligation) is 53 mM. In the data set on 27mer DNA template [9] (reaction with 13merF15′tet in the presence of DNA template), the “observed first order rate constant of DNA-templated reaction” value amounted to 0.019 ± 0.001 s⁻¹. Also, the “time at which the fluorescence signal plateaus” value with 27mer DNA template [9] (reaction with 13merF15′tet, 1 μM 27mer template) is given as “about 200 s”. Further, the “ligation with RNA template compared with DNA template” value in the data set with 27mer RNA template is listed as “equally effective”. Also, in data set [10], the “effect of single mismatch (T to G) in template on reaction rate” value is “only a moderate difference”.
